The test system of one series is Hela cells. Description: Cytotoxicity assay (MTS reduction). The format is cell-based. The settings on record: concentrations up to 100 μM, 18 h, MTS reagent; data not shown. Here is the method:
Selected compounds were also tested for their ability to inhibit growth of mammalian cells so as to ascertain levels of cytotoxicity to the mammalian host, via an assay measuring the biological reduction of the inner salt of (3-(4,5-dimethylthiazol-2-yl)-5-(3-carboxymethoxyphenyl)-2-(4-sulfophenyl)-2H-tetrazolium (MTS reagent). Assays were performed in 96-well microtiter plates. Briefly, compounds at 100, 50, 25, and 12.5 μM concentrations were incubated with 2×10^4 Hela cells per well in Dulbecco's Modified Eagle Medium (Invitrogen Corporation) containing 1% Bovine Growth Serum (HyClone) for 18 h at 37° C. under 5% CO2.
(Tetrazolium dyes change colour on reduction, which living cells bring about.)

The nature of series [1]: Regeneration of drug from bone powder-bound prodrug. The series is classed as in vitro ADME. The settings on record: PBS vs serum. On the procedure:
Amounts of drug “regenerated” from the phosphonated parent prodrug were measured as follows. Washed bone powder-bound prodrugs from the above section were resuspended in 400 μL PBS or in 400 μL 50% (v/v in PBS) human or rat serum. […] Methanol (5× volume relative to supernatant) was added to each supernatant and the mixture was vortexed on a floor model vortex for 15 min to extract freed fluoroquinolone. The mixture was then centrifuged at 10 000 rpm for 15 min to pellet the insoluble material. The supernatant containing the extracted fluoroquinolone was recovered and evaporated to dryness in a speed vac. The dried pellets were resuspended in PBS and the amount of fluoroquinolone was determined by fluorescence measurements as described above. The percentage of drug regenerated was deduced from the difference between amount of bound prodrug and the amount of regenerated drug. The identity of regenerated drug was deduced by MIC determination; MICs of regenerated material matched those of parent drugs but not those of prodrugs.

A short description of series [2]: Bone powder binding, fluorometric detection. The settings on record: for Binding to bone (%) Fluorescence: 1 mg/ml compound, bone meal powder 10 mg/ml in PBS, 37° C., 1 h; for binding to osseous matter, in words: bisphosphonates bearing three hydroxy groups. Here is the method: The ability of the example molecules to bind to bone powder was established in two parallel fashions, using either LC/MS or fluorometric detection. For LC/MS detection, a stock solution (5 mM) of the compound to be tested was added to 0.1M Tris-HCl buffer pH 7, 0.15M NaCl to reach a final concentration of 100 μM. Triplicate samples (1 mL) of the compound solutions were intensively shaken for 10 min with or without 25 mg of fresh or 20 mg of vacuum dried ground rat tibia bone. The samples were then centrifuged for 15 min at 10 000 g. The presence of unbound compound was measured by injection of 30 μL of each of the supernatants into an Agilent 1100™ LC/UV system. For fluorometric detection, an individual compound was dissolved in PBS or water (compound 52) and resuspended at a concentration of 1 mg/ml in a slurry of bone meal powder (Now Foods, Bloomingdale, Ill., USA) in PBS at 10 mg/ml. The suspension of drug/prodrug in bone meal powder was incubated at 37° C. for 1 h to allow for binding, and centrifuged at 13 000 rpm for 2 min, before recovering the supernatant. The bone meal powder pellet was then washed three times with 1 ml of PBS. All supernatants were saved and assessed for fluoroquinolone content by fluorescence measurements at excitation/emission wavelengths of 280/465 nm. The amount of fluoroquinolone was determined from standard curves generated for each experiment. Amount of drug/prodrug bound to bone powder was deduced from the difference between the input amount (typically 1 mg) and the amount recovered in the supernatants after binding. In all binding experiments, >99% of input drug was recovered in the supernatant for the parent drugs.

A further series relates to S. aureus ATCC 13709. Description: Prophylactic model of bone infection in rats. The series is classed as in vivo, rat. The settings on record: for Measured bacterial titer (Log CFU/g of bone) Test compound: 15 mg/kg IV, 2 days prior to infection; for prophylactic effect in rat model of bone infection, in words: Table 4 and FIGS. 6-8, doses as in Table 4. On the procedure:
To determine the activity in vivo of bisphosphonated prodrugs of fluoroquinolones, compounds 52 and 107, derivatives of parent compounds moxifloxacin 3 (for 52), and compounds 39, 44, 49, 54, 121, 129, 141, 145, 149, derivatives of parent compound gatifloxacin 15, were used in a prophylactic model for infection. Specifically, S. aureus ATCC 13709 cells were grown overnight at 37° C. in brain heart infusion broth (BHIB). Cells were subcultured into fresh BHIB and incubated for 4 to 5 h at 37° C. The cells were washed twice with phosphate-buffered saline (PBS) and resuspended in BHIB supplemented with 10% (vol./vol.) fetal bovine serum at a density of approximately 10^10 colony forming units (CFU)/ml (based upon turbidimetry). The suspension was aliquoted and a portion was used to check the CFU count. The culture was stored frozen (−80° C.) and was used without subculture. For use as an inoculum the culture was thawed, diluted in PBS and kept in an ice bath until it was used.
Animals were infected as described by O'Reilly et al. (Antimicrobial Agents and Chemotherapy (1992), 36(12): 2693-97) to generate the bone infection. Female CD rats (age, 57 to 70 days; n=5/group; Charles River, St-Constant, Canada) were anaesthetized by isofluorane before and during the surgery. Following complete induction of anesthesia, the rat was placed ventral side up and hair was shaved from the surgical site. The skin over the leg was cleaned and disinfected (proviodine-ethanol 70%). A longitudinal incision below the knee joint was made in the sagital plane. The incision was made over the bone below the “knee joint” (tibia head or condyle) but not completely extending to the ankle. A high speed drill fitted with a 2 mm bulb bit was used to drill a hole into the medullar cavity of the tibia. Rats were injected intra-tibially with 0.05 ml 5% sodium morrhuate (sclerosing agent) and then with 0.05 ml of S. aureus suspension (ca. 5×10^5 CFU/rat). The hole was sealed by applying a small amount of dry dental cement which immediately absorbs fluids and adheres to the site. The wound was closed using 3 metal skin clips. Moxifloxacin 3 (as a positive control) was injected once at 10 mg/kg intravenously 1 h postinfection in saline, while the fluoroquinolone prodrugs (prepared in 0.9% saline) were injected as a single intravenous bolus dose at different time points prior to the infection. For comparison, the parent drug (moxifloxacin 3 or gatifloxacin 15) was also injected intravenously once at a molar equivalent dose at the same time point prior the infection.
Infected rats were sacrificed by CO2 asphyxiation 24 h postinfection to monitor the bacterial CFU count. Infected tibiae were removed, dissected free of soft tissue, and weighed. The bones were ground using a metal ball mill, resuspended in 5 ml 0.9% NaCl, serially diluted and processed for quantitative cultures. For compounds 39, 44, 49, 54, 141, 145, 149, 1 ml of the 0.9% NaCl solution was added to 50 mg of charcoal before serial dilutions. Treatment efficacies were measured in terms of Log viable bacteria (Log CFU per gram of bone). The results obtained for each group of rats were evaluated by calculating the mean Log CFU and standard deviation. The limit of detection is 2 Log CFU/g of bone. Statistical comparisons of viable bacterial counts for the different treated and untreated groups were performed with Dunnett's multiple-comparison test. Differences were considered significant when the P value was <0.05 when comparing treated infected animals to the untreated infected ones.

“Also recorded” adds a separate entry of the source.

The values that follow come from patent US20080287396A1, “Phosphonated Fluoroquinolones, Antibacterial Analogs Thereof, and Methods for the Prevention and Treatment of Bone and Joint Infections” (TARGANTA THERAPEUTICA INC., priority 2005, published 2008).

Consider `COc1c(N2C[C@@H]3CCCN(CC(P(=O)(OC)OC)P(=O)(OC)OC)[C@@H]3C2)c(F)cc2c(=O)c(C(=O)O)cn(C3CC3)c12` [Compound 4, 7-((4aS,7aS)-1-(2,2-bis(dimethylphosphono)ethyl)-octahydropyrrolo[3,4-b]pyridin-6-yl)-1-cyclopropyl-6-fluoro-1,4-dihydro-8-methoxy-4-oxoquinoline-3-carboxylic acid], for which the cytotoxicity entry in the series on Hela cells was “no signs of any cytotoxicity”.

As to `COP(=O)(OC)C(CN1CCN(c2cc3c(cc2F)c(=O)c(C(=O)O)cn3C2CC2)CC1)P(=O)(OC)OC` [Compound 7, 7-(4-(2,2-bis(dimethylphosphono)ethyl)piperazin-1-yl)-1-cyclopropyl-6-fluoro-1,4-dihydro-4-oxoquinoline-3-carboxylic acid], the cytotoxicity result with Hela cells was “no signs of any cytotoxicity”.

Take `CCOP(=O)(OCC)C(NC(=O)COC(=O)c1cn(C2CC2)c2c(OC)c(N3CCN(C(=O)OC(C)(C)C)C(C)C3)c(F)cc2c1=O)P(=O)(OCC)OCC` (centres unmarked) [Compound 53, (1,1-Bis(diethylphosphono)methylcarbamoyl)methyl 7-(4-(tert-butoxycarbonyl)-3-methylpiperazin-1-yl)-1-cyclopropyl-6-fluoro-1,4-dihydro-8-methoxy-4-oxoquinoline-3-carboxylate]: the cytotoxicity result in the series on Hela cells is listed as “no signs of any cytotoxicity”.

In the case of `COc1c(N2C[C@@H]3CCCN[C@@H]3C2)c(F)cc2c(=O)c(C(=O)OCC(=O)Nc3ccc(C(P(=O)(O)O)P(=O)(O)O)cc3)cn(C3CC3)c12` [Compound 73, (4-Bisphosphonomethylphenylcarbamoyl)methyl 1-cyclopropyl-6-fluoro-1,4-dihydro-7-((4aS,7aS)-octahydropyrrolo[3,4-b]pyridin-6-yl)-8-methoxy-4-oxoquinoline-3-carboxylate], the “effect of the medium (presence or absence of serum) on regeneration rate” value (“effect of the medium” for short) in series [1] is “fairly similar rates”. Besides, in series [2], the “Binding to bone (%) Fluorescence” value was 99.0%.

On to `COc1c(N2CCNC(C)C2)c(F)cc2c(=O)c(C(=O)OCC(=O)N(C)C(P(=O)(O)O)P(=O)(O)O)cn(C3CC3)c12` (centres unmarked) [Compound 82, (N-Methyl-1,1-Bisphosphonomethylcarbamoyl)methyl 7-(3-methylpiperazin-1-yl)-1-cyclopropyl-6-fluoro-1,4-dihydro-8-methoxy-4-oxoquinoline-3-carboxylate], for which the “effect of the medium” value in series [1] is “fairly similar rates”. Moreover, in series [2], the “Binding to bone (%) Fluorescence” value stood at 90.4%.

`COc1c(N2C[C@@H]3CCCN[C@@H]3C2)c(F)cc2c(=O)c(C(=O)Oc3ccc(C(P(=O)(O)O)P(=O)(O)O)cc3)cn(C3CC3)c12` [Compound 85, 4-(Bisphosphonomethyl)phenyl 1-cyclopropyl-6-fluoro-1,4-dihydro-7-((4aS,7aS)-octahydropyrrolo[3,4-b]pyridin-6-yl)-8-methoxy-4-oxoquinoline-3-carboxylate]: the “effect of the medium” value in series [1] was “fairly similar rates”. In series [2], the “Binding to bone (%) Fluorescence” value is 98.9%.

As to `COc1c(N2CCNC(C)C2)c(F)cc2c(=O)c(C(=O)Oc3ccc(C(P(=O)(O)O)P(=O)(O)O)cc3)cn(C3CC3)c12` (centres unmarked) [Compound 87, 4-(Bisphosphonomethyl)phenyl 7-(3-methylpiperazin-1-yl)-1-cyclopropyl-6-fluoro-1,4-dihydro-8-methoxy-4-oxoquinoline-3-carboxylate], in series [1], the “effect of the medium” value was “fairly similar rates”. In series [2], the “Binding to bone (%) Fluorescence” value is recorded as 79.2%.

With `CCCC(=O)Oc1ccc(P(=O)(O)CP(=O)(O)O)cc1C(C)(C)CC(=O)N1CCN(c2c(F)cc3c(=O)c(C(=O)O)cn(C4CC4)c3c2OC)CC1C` (centres unmarked) [Compound 149, 7-(4-(3-(2-butyroxy-5-((phosphonomethyl)phosphonoyl)phenyl)-3-methylbutanoyl)-3-methylpiperazin-1-yl)-1-cyclopropyl-6-fluoro-1,4-dihydro-8-methoxy-4-oxoquinoline-3-carboxylic acid], in the series on S. aureus ATCC 13709, the “Measured bacterial titer (Log CFU/g of bone) Test compound” value is 5.16 ± 0.72 Log CFU/g of bone and the “prophylactic effect in rat model of bone infection, in words” value is reported as “unable to produce a positive result in vivo”. Besides, in series [2], the “Binding to bone (%) Fluorescence” value was found to be 89.6% and the “binding to osseous matter, in words” value is recorded as “less effectively bound”.

As to `COc1c(N2CCN(C(=O)CC(C)(C)c3cc(P(=O)(O)CP(=O)(O)O)ccc3OP(=O)(O)O)C(C)C2)c(F)cc2c(=O)c(C(=O)O)cn(C3CC3)c12` (centres unmarked) [Compound 153, 7-(4-(3-(2-phosphoryloxy-5-((phosphonomethyl)phosphonoyl)phenyl)-3-methylbutanoyl)-3-methylpiperazin-1-yl)-1-cyclopropyl-6-fluoro-1,4-dihydro-8-methoxy-4-oxoquinoline-3-carboxylic acid], in the series with S. aureus ATCC 13709, the “Measured bacterial titer (Log CFU/g of bone) Test compound” value was 4.08 ± 0.54 Log CFU/g of bone and the “prophylactic effect in rat model of bone infection, in words” value was “unable to produce a positive result in vivo”. In series [2], the “Binding to bone (%) Fluorescence” value worked out at 0% and the “binding to osseous matter, in words” value was “less effectively bound; also recorded: not bound at all”.

On to `COC(=O)c1cn(C2CC2)c2c(OC)c(N3C[C@@H]4CCCN[C@@H]4C3)c(F)cc2c1=O` [Compound 154, Methyl 1-cyclopropyl-6-fluoro-1,4-dihydro-7-((4aS,7aS)-octahydropyrrolo[3,4-b]pyridin-6-yl)-8-methoxy-4-oxoquinoline-3-carboxylate], for which the cytotoxicity entry in the series on Hela cells is recorded as “no signs of any cytotoxicity”.
